“Also recorded” adds a separate entry of the source.
What was measured:
[1] = system: AGS cells; assay: Cell viability (MTT) assay after hypoxia/reperfusion (H/R); format: cell-based, human; details: for cell viability in the MTT assay: 4 h hypoxia + 24 h reperfusion
Description: (§1) Hypoxia (Ischemia)/Normoxia (Reperfusion) (H/R) protocols for in vitro studies: For all experiments AGS, Caco-2 and RIE1 cells were set up in plates as described in specific methods. Cells were used at 70-80% confluence for cell injury/death assessment and as confluent monolayers for permeability studies. To induce “ischemia”, cells were placed in a hypoxic incubator (2% 02) for specified time and to mimic reperfusion, cells were placed back in a normoxic (21% 02) incubator for specified time. All treatments were duplicated in a second set of identical plates under normoxic conditions throughout the same test period as controls. To determine optimum conditions for the in vitro studies, pilot studies were performed.
Cell viability (MTT) assay: Cell viability following H/R was assessed using an MTT assay (3-(4,5-dimethylthiazol-2-yl)-2,5-diphenyltetrazolium bromide) according to Marshall et al., Growth Regul. 1995; 5(2):69-84. The principal of the assay is that viable cells contain NAD(P)H-dependent oxidoreductase enzymes which reduce the MTT reagent to formazan which can be measured spectrophotometrically. At the end of the H/R period, 5 mg/ml MTT in PBS was added to each well of the 96 well plates and incubated at 37° C. for 4 hours, the medium was replaced with 150 μl of DMSO and the absorbance measured at 490 nm. Cell viability was expressed as percentage of the equivalent normoxic control, all results are expressed as mean+/−SEM of six wells.
Example 1A: Dose response study: To examine the effect of PSTI on H/R-induced cell injury in vitro, cells were set up in 96 well plates and pre-incubated in SFM containing glucose, with or without 5, 10 or 15 μg/ml PSTI for 1 hour (i.e. PSTI pre-treatment). These concentrations of PSTI were chosen based on previous studies examining cell migration (Marchbank et al., 2007, Am J Pathol 171(5):1462-73). The medium was replaced with SFM without glucose and placed in the hypoxia incubator for 4 hours. At the end of the hypoxia period, medium was replaced with SFM containing glucose for 24 hours at normoxia for the reperfusion period.
Example 1B: Efficacy of PSTI given pre-, during- or post-hypoxic period. The potential benefits of giving PSTI prior to, during or following the hypoxic period were compared. Cells were either pre-treated with 10 μg/ml PSTI for the 1 hour before hypoxia (Pre), treated with 10 μg/ml PSTI during hypoxia (During) or treated with 10 μg/ml PSTI during the reperfusion stage (Post). Cell Viability (MTT assay) and cell damage (LDH assay) were assessed. Cells were pre-treated with 10 μg/ml PSTI for the 1 hour before hypoxia (Pre), at the time of the start of hypoxic period (During), or added at the start of the reperfusion stage (Post). Cell Viability (MTT assay) and cell damage (LDH assay) were assessed.

[2] = system: polarised Caco-2 monolayers; assay: Transepithelial electrical resistance (TEER) after H/R; format: cell-based, human
Description: as §1
(§2) The effect of […] PSTI pre-treatment on transepithelial permeability induced by 1 hour of hypoxia followed by 24 hours of normoxia was examined using Caco-2, human polarizing colonic adenocarcinoma cells utilizing two different previously published methods according to Davison et al., 2016, Am J Nutr 2016; 104:526-536. One method determined change in transepithelial electrical resistance (TEER) and the other method analyzed the passage of horseradish peroxidase (HRP) across the epithelial layer. HRP (type II) is a non-digestible macromolecular protein (MW=44 kD) and has previously been used as a tracer in evaluation of epithelial permeability. Each monolayer had TEER and HRP permeability assessed at baseline, at the end of 1 h incubation in an hypoxic (ischemic) chamber and at the end of a 24 h reoxygenation (reperfusion) period. Measurements were taken in triplicate from 4 wells per treatment. Results are expressed as mean+/−SEM.

[3] = system: polarised Caco-2 monolayers; assay: Permeation of horseradish peroxidase (HRP) through the monolayer after H/R; format: cell-based, human
Description: as §1, §2

[4] = system: NSAID-induced gastric injury; details: rats, PSTI administration; cited from earlier work
[5] = system: human colonic carcinoma HT29 cells; details: HT29 cells in vitro; cited from earlier work
[6] = system: lipopolysaccharide-stimulated dendritic cells; details: lipopolysaccharide-stimulated dendritic cells in vitro; cited from earlier work
[7] = system: bladder cancer; details: cited from earlier work
[8] = system: lung tissue; assay: Gut I/R model, lung tissue
[9] = system: 50% SI (clamped region); assay: Gut ischemia-reperfusion (I/R) model, clamped 50% SI site
[10] = PSTI added to the medium prior to I/R
[11] = IR + PSTI 20 μg/kg ip, mean ± SEM
[12] = PSTI 20 μg/kg ip, vs I/R without PSTI
[13] = 50% SI clamped, PSTI 20 μg/kg ip, vs I/R without PSTI

Substance: pancreatic secretory trypsin inhibitor (DSLGREAKCYNELNGCTKIYDPVCGTDGNTYPNECVLCFENRKRQTSILIQKSGPC; listed as Homo sapiens) [PSTI]
- cell viability in the MTT assay ([1]; AGS, PSTI 10 μg/ml 1 h before hypoxia (Pre), % of normoxic control, H/R without PSTI 52±2%): 78±2%
- cell viability in the MTT assay ([1]; AGS, PSTI 10 μg/ml during hypoxia period): 66±3%
- cell viability in the MTT assay ([1]; AGS, PSTI 10 μg/ml during the post-hypoxia period): 49±1%
- improvement of survival after H/R ([1]; AGS, RIE1 and Caco-2 cells, hypoxia/reperfusion 4 h+24 h, PSTI 10 μg/ml prior or during hypoxic period, p<0.01): 50%
- optimum concentration for reducing cell death (MTT and LDH assays) ([1]; PSTI 5, 10 or 15 μg/ml given 1 h prior to H/R): 10 µg/mL
- effect on cell viability / cell death after H/R vs serum free medium ([1]; PSTI added before (or during) H/R): reduced hypoxia-reoxygenation-induced cell death; also recorded: significantly increased % cell viability
- cell viability of cells not exposed to H/R ([1]; normoxia, PSTI 10 microgram per ml): no change in viability or LDH; also recorded: no change in viability
- reduction of the fall in TEER caused by H/R ([2]; Caco-2, 1 h hypoxia + 24 h normoxia, PSTI pre-treatment): about 50%
- TEER under normoxic conditions ([2]; Caco-2, normoxia): no effect on TEER or HRP permeation; also recorded: no effect on transepithelial resistance (TEER)
- H/R-induced change in TEER permeability, medium alone vs PSTI [2, 10]: significantly greater increases in permeability compared to those that had PSTI added
- truncation of the damaging effect of hypoxia-normoxia on epithelial integrity ([2]; TEER and HRP permeation, polarized monolayers): about 65%
- truncation of the increase in HRP permeability ([3]; Caco-2, end of the 1 h hypoxic period): about 54%
- truncation of the increase in HRP permeability ([3]; Caco-2, final H/R time point (1 h hypoxia + 24 h)): 37%
- truncation of the 300% increase in transepithelial permeability (horse radish peroxidase translocation) ([3]; Caco-2 monolayers, hypoxia/reperfusion 1 h+24 h, p<0.01): 50%
- I/R-induced change in HRP permeability, medium alone vs PSTI [3, 10]: significantly greater increases in permeability compared to those that had PSTI added
- HRP permeation under normoxic conditions ([3]; normoxia): no effect on TEER or HRP permeation
- NSAID-induced gastric injury [4]: reduces NSAID-induced gastric injury
- cell migration [5]: stimulate cell migration
- proliferation [5]: not proliferation
- cytokine release of TNFα and IL-12 [6]: reduced cytokine release of TNFα and IL-12
- migration and invasion [7]: causes autocrine-mediated migration and invasion in bladder cancer
- phosphorylation of signalling proteins [7]: phosphorylates the EGF receptor, Akt2 and Akt3, and ERK1 and ERK2
- Caspase 3 ([8]; IR + PSTI 20 μg/kg ip 1 h before clamping, mean ± SEM): 0.092 ± 0.022 Change in absorbance
- Baxα [8, 11]: 3.74 ± 0.21 pg/μg total protein
- Bcl2 [8, 11]: 45.66 ± 3.79 pg/μg total protein
- Caspase 9 [8, 11]: 0.063 ± 0.004 Change in absorbance
- Claudin 1 [8, 11]: 9.63 ± 0.40 pg/μg total protein
- ZO1 [8, 11]: 8.15 ± 0.80 pg/μg total protein
- histological damage of lung ([8]; PSTI 20 μg/kg ip 1 h before clamping, vs I/R without PSTI): markedly truncated these effects; also recorded: protective effects; also recorded: markedly truncated the adverse effects; also recorded: significantly reduced histological scoring of lung damage
- MDA levels [8, 12]: this increase was truncated; also recorded: significantly reduced MDA levels
- MPO levels (neutrophil infiltration) [8, 12]: reduced neutrophil infiltration of the lungs; also recorded: significantly reducing these changes; also recorded: significantly reduced MPO levels
- ICAM1 levels ([9]; 50% SI clamped (gut), PSTI 20 μg/kg ip, vs I/R without PSTI): did not affect increased ICAM1; also recorded: no effect on these results; also recorded: did not affect ICAM1 levels
- histological damage of small intestine ([9]; 50% SI clamped, PSTI 20 μg/kg ip 1 h before clamping, vs I/R without PSTI): much less extensive damage; also recorded: protective effects; also recorded: significantly reduced histological scoring
- Baxα levels [9, 13]: truncated the increase; also recorded: significantly decreased the damaging pro-apoptotic Baxα activity
- Bcl2 levels [9, 13]: maintained levels; also recorded: significantly increased the protective anti-apoptotic Bcl2 activity
- Caspase 3 levels [9, 13]: virtually eliminated; also recorded: significantly decreased Caspase 3 activity
- Caspase 9 levels [9, 13]: virtually eliminated; also recorded: significantly decreased Caspase 9 activity
- Claudin1 levels [9, 13]: virtually completely prevented; also recorded: significantly increased the protective Claudin1
- HIF1α levels [9, 13]: further increasing HIF1α and VEGF; also recorded: significantly increased the protective HIF1α
- MDA levels [9, 13]: this increase was truncated; also recorded: significantly reduced MDA levels
- MPO levels [9, 13]: significantly reducing these changes; also recorded: significantly reduced MPO levels
- VEGF levels [9, 13]: further increasing HIF1α and VEGF; also recorded: significantly increased the protective VEGF
- ZO1 levels [9, 13]: virtually completely prevented; also recorded: significantly increased the protective ZO1
- hSP70 levels [9, 13]: Additional increases in hSP70 expression; also recorded: significantly increased the protective hSP70
- reduction of all injury markers ([9]; gut, lung, kidney (necrosis, MDA, MPO), PSTI 20 μg/kg, p<0.01): 50-80%
- histological and biochemical markers of injury in gut, lung and kidney ([9]; pre-treatment with PSTI): significantly reduced histological and biochemical markers of injury
